The text below walks through data of patent publication US20050282755A1, “Compositions having antimicrobial activity and uses thereof” (priority 2004, published 2005).

Holding throughout (type): cell-based
In experiment [1] the test system is Candida albicans ATCC 18804. The experiment can be described thus: MIC in yeasts, NCCLS M27-A2 broth microdilution, RPMI 1640 (Table 9, letter e). The note with it: ATCC 18804. The procedure, abridged: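 Plates incubated 24 to 48 hours at 37° C, with yeast seeded at 0.5×10^3–2.5×10^3 CFU/milliliter final in RPMI 1640 (glutamine, phenol red indicator). MIC was read as the lowest peptide concentration showing no visible growth.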

A further experiment concerns Salmonella dublin (Lane). The experiment can be described thus: MIC, NCCLS M7-A6 broth microdilution (Table 9, no superscript). The procedure, abridged: (§1)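 Broth microdilution in cation-adjusted Mueller Hinton broth, log-phase inoculum giving 5×10^5 to 1×10^6 CFU/milliliter per well. Overnight incubation at 37° C. MIC taken as lowest peptide concentration with no visible turbidity versus a no-peptide control.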
On the technique in general: Broth dilution looks for growth in wells or tubes with falling amounts of substance.

Experiment [2] concerns Propionibacterium acnes ATCC 6919. The protocol: A second method that was used to determine the MIC in P. acnes for selected antimicrobial agents was a non-standard broth microdilution method that used an assay buffer composed of reinforced Clostridial broth. Briefly, a log-phase bacterial culture of P. acnes was used to inoculate wells of a 96-well plate so that the final inoculum for each well contained 5×10^5 to 1×10^6 CFU/milliliter. […] Plates were incubated for 48-72 hours at 37° C. in a GasPak anaerobic chamber. The lowest concentration of peptide that contained no visible growth as evidenced by a lack of turbidity when compared to the control (no peptide) was determined as the MIC. MIC values that utilized this method of MIC determination are indicated in Table 9 with a subscript letter “d.”

In experiment [3] the test system is Staphylococcus aureus ATCC 29213. The experiment can be described thus: MIC, NCCLS M7-A6 broth microdilution, cation-adjusted Mueller Hinton broth (Table 9, no superscript). The settings on record: ATCC 29213. The procedure, abridged:
as §1

In experiment [4] the test system is Propionibacterium acnes ATCC 6919. Put plainly: MIC, agar dilution method NCCLS M11-A6, Brucella agar, anaerobic (Table 9, superscript c). The settings on record: ATCC 6919. The procedure, abridged:
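MIC taken as the lowest peptide level giving no colonies on the plate. Plates were inoculated to 1.5×10^8 CFU/milliliter, then kept anaerobically at 37° C. for 48-96 hours; method follows NCCLS M11-A6.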
A general note: Agar dilution tests growth on a series of plates holding different concentrations.

For experiment [5], the system named is Staphylococcus epidermidis ATCC 12228. Put plainly: MIC, NCCLS M7-A6 broth microdilution (Table 9, no superscript). The note with it: ATCC 12228. Summed up: as §1
The test system of experiment [6] is Escherichia coli ATCC 25922. Described as above. The settings on record: ATCC 25922. Summed up: as §1
Experiment [7] concerns Pseudomonas aeruginosa ATCC 27853. The experiment is described as above. The note with it: ATCC 27853. The procedure, abridged:
as §1

≈ marks a conversion by molar mass, not a printed value. Like-named read-outs stand apart in the source and are kept apart here. Non-standard residues stand in square brackets, D forms with d. Residues, ends and D or L forms follow the SMILES beside them. *: point of attachment. Lauroyl = CCCCCCCCCCCC(=O)*

For `CSCC[C@H](NC(=O)[C@H](Cc1ccccc1)NC(=O)[C@H](CC(N)=O)NC(=O)[C@H](CCCNC(=N)N)NC(=O)[C@H](C)NC(=O)[C@@H](NC(=O)[C@H](CC(=O)O)NC(=O)[C@H](CCCNC(=N)N)NC(=O)[C@H](Cc1c[nH]c2ccccc12)NC(=O)[C@H](CCCNC(=N)N)NC(=O)[C@H](CO)NC(=O)[C@H](CCCNC(=N)N)NC(C)=O)C(C)C)C(=O)N[C@@H](CCCNC(=N)N)C(N)=O` [Peptide 92, Ac-RSRWRDVARNFMR-NH2] (Ac-RSRWRDVARNFMR-NH2), the “MIC C. albicans” value in experiment [1] came out at 8e ug/mL. In addition, in the experiment with Salmonella dublin (Lane), the “MIC S. dublin” value was more than 64 µg/mL. In experiment [2], the “MIC P. acnes” value was 25 µg·days/mL. Also, the “MIC S. aureus” value in experiment [3] is more than 64 µg/mL.
On to `CSCC[C@@H](NC(=O)[C@@H](Cc1ccccc1)NC(=O)[C@@H](CC(N)=O)NC(=O)[C@@H](CCCNC(=N)N)NC(=O)[C@@H](CO)NC(=O)[C@@H](Cc1c[nH]c2ccccc12)NC(=O)[C@@H](CC(=O)O)NC(=O)[C@@H](CCCNC(=N)N)NC(=O)[C@@H](Cc1c[nH]c2ccccc12)NC(=O)[C@@H](CCCNC(=N)N)NC(=O)[C@@H](CO)NC(=O)[C@@H](CCCNC(=N)N)NC(=O)CNC(=O)[C@H](NC(=O)[C@@H](CCCNC(=N)N)NC(=O)[C@@H](CO)NC(=O)[C@H](NC(=O)[C@@H](CCCNC(=N)N)NC(=O)[C@H](NC(C)=O)[C@H](C)O)C(C)C)[C@H](C)O)C(=O)N[C@H](CCCNC(=N)N)C(=O)N[C@H](CCCCN)C(=O)N[C@H](CCCCN)C(=O)N[C@H](CCCCN)C(=O)N[C@H](CCCCN)C(=O)N[C@H](CCCCN)C(=O)N[C@H](CCCCN)C(=O)N[C@H](CCCCN)C(=O)N[C@H](CCCCN)C(N)=O` [Peptide 34, Ac-trvsrtgrsrwrdwsrnfmrkkkkkkkk-NH2] (Ac-[dT][dR][dV][dS][dR][dT]G[dR][dS][dR][dW][dR][dD][dW][dS][dR][dN][dF][dM][dR][dK][dK][dK][dK][dK][dK][dK][dK]-NH2), for which the “MIC S. dublin” value against Salmonella dublin (Lane) is more than 64 µg/mL. For the same compound, in experiment [2], the “MIC P. acnes” value turned out to be 6 µg·days/mL. In addition, the “MIC S. aureus” value in experiment [3] was more than 64 µg/mL.
In the case of `CSCC[C@H](NC(=O)[C@H](Cc1ccccc1)NC(=O)[C@H](CC(N)=O)NC(=O)[C@H](CCCNC(=N)N)NC(=O)[C@H](CO)NC(=O)[C@H](Cc1c[nH]c2ccccc12)NC(=O)[C@H](CC(=O)O)NC(=O)[C@H](CCCNC(=N)N)NC(=O)[C@H](Cc1c[nH]c2ccccc12)NC(=O)[C@H](CCCNC(=N)N)NC(=O)[C@H](CO)NC(=O)[C@H](CCCNC(=N)N)NC(C)=O)C(=O)N[C@@H](CCCNC(=N)N)C(N)=O` [Peptide 91, Ac-RSRWRDWSRNFMR-NH2] (Ac-RSRWRDWSRNFMR-NH2), the “MIC C. albicans” value in experiment [1] amounted to 16e ug/mL. Also, the “MIC S. dublin” value in the experiment with Salmonella dublin (Lane) is more than 64 µg/mL. Moreover, the “MIC P. acnes” value in experiment [2] came to 25 µg·days/mL. For the same compound, the “MIC S. aureus” value in experiment [3] is more than 64 µg/mL.
Take `CCCCCCCCCCCC(=O)N[C@H](C(=O)N[C@@H](CCCNC(=N)N)C(=O)N[C@H](C(=O)N[C@@H](C)C(=O)N[C@@H](CCCNC(=N)N)C(=O)N[C@H](C(=O)NCC(=O)N[C@@H](CCCNC(=N)N)C(=O)N[C@@H](CO)C(=O)N[C@@H](CCCNC(=N)N)C(=O)N[C@@H](Cc1c[nH]c2ccccc12)C(=O)N[C@@H](CCCNC(=N)N)C(=O)N[C@@H](CC(=O)O)C(=O)N[C@H](C(=O)N[C@@H](C)C(=O)N[C@@H](CCCNC(=N)N)C(=O)N[C@@H](CC(N)=O)C(=O)N[C@@H](Cc1ccccc1)C(=O)N[C@@H](CCSC)C(=O)N[C@@H](CCCNC(=N)N)C(N)=O)C(C)C)[C@@H](C)O)C(C)C)[C@@H](C)O` [Peptide 69] (Lauroyl-TRVARTGRSRWRDVARNFMR-NH2): in experiment [1], the “MIC C. albicans” value is listed as 16e ug/mL. Also, in the experiment on Salmonella dublin (Lane), the “MIC S. dublin” value is 16 µg/mL (≈ 5.99 µM). In addition, the “MIC P. acnes” value in experiment [2] came out at 12.5 µg·days/mL. Also, in experiment [3], the “MIC S. aureus” value was determined as 4 µg/mL (≈ 1.5 µM).
On the same counts, the results for `CCCCCCCCCCCC(=O)N[C@@H](C(=O)N[C@H](CCCNC(=N)N)C(=O)N[C@@H](C(=O)N[C@H](C)C(=O)N[C@H](CCCNC(=N)N)C(=O)N[C@@H](C(=O)NCC(=O)N[C@H](CCCNC(=N)N)C(=O)N[C@H](CO)C(=O)N[C@H](CCCNC(=N)N)C(=O)N[C@H](Cc1c[nH]c2ccccc12)C(=O)N[C@H](CCCNC(=N)N)C(=O)N[C@H](CC(=O)O)C(=O)N[C@H](Cc1c[nH]c2ccccc12)C(=O)N[C@H](C)C(=O)N[C@H](CCCNC(=N)N)C(=O)N[C@H](CC(N)=O)C(=O)N[C@H](Cc1ccccc1)C(=O)N[C@H](CCSC)C(=O)N[C@H](CCCNC(=N)N)C(N)=O)[C@H](C)O)C(C)C)[C@H](C)O` [Peptide 77, Lauryl-trvartgrsrwrdwarnfmr-NH2] (Lauroyl-[dT][dR][dV][dA][dR][dT]G[dR][dS][dR][dW][dR][dD][dW][dA][dR][dN][dF][dM][dR]-NH2) are 8e ug/mL, 16 µg/mL (≈ 5.8 µM), 12.5 µg·days/mL and 16 µg/mL (≈ 5.8 µM).
Turning to `CSCC[C@H](NC(=O)[C@H](Cc1ccccc1)NC(=O)[C@H](CC(N)=O)NC(=O)[C@H](CCCNC(=N)N)NC(=O)[C@H](C)NC(=O)[C@@H](NC(=O)[C@H](CC(=O)O)NC(=O)[C@H](CCCNC(=N)N)NC(=O)[C@H](Cc1c[nH]c2ccccc12)NC(=O)[C@H](CCCNC(=N)N)NC(=O)[C@H](CO)NC(=O)[C@H](CCCNC(=N)N)NC(=O)CNC(=O)[C@@H](NC(=O)[C@H](CCCNC(=N)N)NC(=O)[C@H](C)NC(=O)[C@@H](NC(=O)[C@H](CCCNC(=N)N)NC(=O)[C@@H](NC(C)=O)[C@@H](C)O)C(C)C)[C@@H](C)O)C(C)C)C(=O)N[C@@H](CCCNC(=N)N)C(N)=O` [Peptide 38] (Ac-TRVARTGRSRWRDVARNFMR-NH2), the “MIC C. albicans” value in experiment [1] stood at 16e ug/mL. The “MIC S. dublin” value against Salmonella dublin (Lane) was more than 64 µg/mL. Further, the “MIC P. acnes” value in experiment [2] was found to be 25 µg·days/mL. The “MIC S. aureus” value in experiment [3] was more than 64 µg/mL.
In the case of `CC(=O)N[C@@H](C(=O)N[C@H](CCCNC(=N)N)C(=O)N[C@@H](C(=O)N[C@H](CO)C(=O)N[C@H](CCCNC(=N)N)C(=O)N[C@@H](C(=O)NCC(=O)N[C@H](CCCNC(=N)N)C(=O)N[C@H](CO)C(=O)N[C@H](CCCNC(=N)N)C(=O)N[C@H](Cc1c[nH]c2ccccc12)C(=O)N[C@H](CCCNC(=N)N)C(=O)N[C@H](CC(=O)O)C(=O)N[C@H](Cc1c[nH]c2ccccc12)C(=O)N[C@H](CO)C(=O)N[C@H](CCCNC(=N)N)C(=O)N[C@H](CC(N)=O)C(=O)N[C@H](Cc1ccccc1)C(=O)N[C@H](C)C(=O)N[C@H](CCCNC(=N)N)C(N)=O)[C@H](C)O)C(C)C)[C@H](C)O` [Peptide 61, Ac-trvsrtgrsrwrdwsrnfar-NH2] (Ac-[dT][dR][dV][dS][dR][dT]G[dR][dS][dR][dW][dR][dD][dW][dS][dR][dN][dF][dA][dR]-NH2), the “MIC S. dublin” value with Salmonella dublin (Lane) was more than 64 µg/mL. Further, the “MIC P. acnes” value in experiment [2] was 12.5 µg·days/mL. Also, in experiment [3], the “MIC S. aureus” value was more than 64 µg/mL.
Consider `CCCCCCCCCCCC(=O)N[C@H](CCCNC(=N)N)C(=O)N[C@H](CO)C(=O)N[C@H](CCCNC(=N)N)C(=O)N[C@H](Cc1c[nH]c2ccccc12)C(=O)N[C@H](CCCNC(=N)N)C(=O)N[C@H](CC(=O)O)C(=O)N[C@H](Cc1c[nH]c2ccccc12)C(=O)N[C@H](CO)C(=O)N[C@H](CCCNC(=N)N)C(=O)N[C@H](CC(N)=O)C(=O)N[C@H](Cc1ccccc1)C(=O)N[C@H](CCSC)C(=O)N[C@H](CCCNC(=N)N)C(N)=O` [Peptide 89, Lauryl-rsrwrdwsrnfmr-NH2] (Lauroyl-[dR][dS][dR][dW][dR][dD][dW][dS][dR][dN][dF][dM][dR]-NH2), for which the “MIC C. albicans” value in experiment [1] worked out at 32e ug/mL. In the experiment with Salmonella dublin (Lane), the “MIC S. dublin” value was 4 µg/mL (≈ 1.97 µM). Also, the “MIC P. acnes” value in experiment [2] stood at 25 µg·days/mL. In addition, the “MIC S. aureus” value in experiment [3] came out at 4 µg/mL (≈ 1.97 µM).
For the compound `CCCCCCCCCCCC(=O)NCCCC[C@H](NC(=O)[C@H](CCCNC(=N)N)NC(=O)[C@H](CC(C)C)NC(=O)[C@H](Cc1ccccc1)NC(=O)[C@H](CC(N)=O)NC(=O)[C@H](CCCNC(=N)N)NC(=O)[C@H](C)NC(=O)[C@@H](NC(=O)[C@H](CC(=O)O)NC(=O)[C@H](CCCNC(=N)N)NC(=O)[C@H](Cc1c[nH]c2ccccc12)NC(=O)[C@H](CCCNC(=N)N)NC(=O)[C@H](CO)NC(=O)[C@@H](N)CCCNC(=N)N)C(C)C)C(N)=O` [Peptide 181, H2N-RSRWRDVARNFLRK(Lauryl)-NH2] (H-RSRWRDVARNFLRK(Lauroyl)-NH2), the “MIC P. acnes” value in experiment [4] is recorded as 64c ug/mL. Moreover, the “MIC C. albicans” value in experiment [1] was 8e ug/mL. For the same compound, the “MIC S. dublin” value in the experiment on Salmonella dublin (Lane) was 16 µg/mL (≈ 7.84 µM). Also, the “MIC S. epidermidis” value in experiment [5] was 1 µg/mL (≈ 0.49 µM). For the same compound, in experiment [6], the “MIC E. coli” value is 4 µg/mL (≈ 1.96 µM). Moreover, in experiment [7], the “MIC P. aeruginosa” value was 4 µg/mL (≈ 1.96 µM). For the same compound, the “MIC S. aureus” value in experiment [3] was determined as 4 µg/mL (≈ 1.96 µM).
